From ChEMBL document CHEMBL5344403, “Discovery and evaluation of phenacrylanilide derivatives as novel potential anti-liver fibrosis agents” (Eur J Med Chem, 2022)
Calls of active or inactive are those of the source. The rule behind the calls is not given here.

Legend:
[1] = Antiproliferative activity against human LO2 cells assessed as inhibition of cell growth incubated for 72 hrs by CCK-8 assay; format: toxicity, cell-based; conditions: LO2 (L02) cells
[2] = tested on: Mus musculus; test: Antifibrotic activity against CCL4-induced C57BL/6J mouse hepatic fibrosis model assessed as reduction in CD69/CD4 in Th1 cell cells at 30 mg/kg, po measured for 3 weeks by flow cytometry analysis relative to control; format: functional; parameters: scale not given: the % may be the effect or the level left
[3] = tested on: Mus musculus; test: Antifibrotic activity against CCL4-induced C57BL/6J mouse hepatic fibrosis model assessed as reduction in CD11b/Gr-1 in MDSC cells at 15 mg/kg, po measured for 3 weeks by flow cytometry analysis relative to control; format: functional; parameters: scale not given: the % may be the effect or the level left
[4] = tested on: Mus musculus; test: Anti-hepatic fibrosis activity in CCL4-induced C57BL/6J mouse hepatic fibrosis model assessed as decrease in collagen deposition in liver at 15 to 30 mg/kg, po measured for 3 weeks by sirius red staining based analysis; format: functional, organism-based; conditions: dose 15-30 mg/kg
[5] = tested on: Mus musculus; test: Antifibrotic activity against CCL4-induced C57BL/6J mouse hepatic fibrosis model assessed as reduction in F4/80+CD11b+ in macrophage at 15 mg/kg, po measured for 3 weeks by flow cytometry analysis relative to control; format: functional; parameters: scale not given: the % may be the effect or the level left
[6] = tested on: Mus musculus; test: Anti-hepatic fibrosis activity in CCL4-induced C57BL/6J mouse hepatic fibrosis model assessed as decrease in serum TG level at 15 to 30 mg/kg, po measured for 3 weeks; format: functional, organism-based; conditions: dose 15-30 mg/kg
[7] = tested on: Mus musculus; test: Anti-hepatic fibrosis activity in CCL4-induced C57BL/6J mouse hepatic fibrosis model assessed as decrease in collagen deposition in liver at 15 to 30 mg/kg, po measured for 3 weeks by Masson's trichome staining based analysis; format: functional, organism-based; conditions: dose 15-30 mg/kg
[8] = tested on: Mus musculus; test: Anti-hepatic fibrosis activity in CCL4-induced C57BL/6J mouse hepatic fibrosis model assessed as decrease in serum CHO level at 15 to 30 mg/kg, po measured for 3 weeks; format: functional, organism-based; conditions: dose 15-30 mg/kg
[9] = tested on: Mus musculus; test: Antifibrotic activity against CCL4-induced C57BL/6J mouse hepatic fibrosis model assessed as reduction in F4/80+CD11b+ in macrophage at 30 mg/kg, po measured for 3 weeks by flow cytometry analysis relative to control; format: functional; parameters: scale not given: the % may be the effect or the level left
[10] = tested on: Mus musculus; test: Anti-hepatic fibrosis activity in CCL4-induced C57BL/6J mouse hepatic fibrosis model assessed as improvement in liver structural damage at 15 to 30 mg/kg, po measured for 3 weeks by H and E staining based analysis; format: functional, organism-based; conditions: dose 15-30 mg/kg
[11] = Toxicity in CCL4-induced C57BL/6J mouse assessed as effect on uric acid level at 15 to 30 mg/kg, po; format: organism-based; conditions: in vivo, dose 15-30 mg/kg
[12] = Toxicity in CCL4-induced po dosed C57BL/6J mouse assessed as decrease in spleen weight coefficient; format: organism-based; conditions: in vivo, dose 15-30 mg/kg
[13] = tested on: Mus musculus; test: Anti-hepatic fibrosis activity in CCL4-induced C57BL/6J mouse hepatic fibrosis model assessed as reduction in liver weight coefficient at 15 to 30 mg/kg, po measured for 3 weeks; format: functional, organism-based; conditions: dose 15-30 mg/kg
[14] = tested on: Mus musculus; test: Anti-hepatic fibrosis activity in CCL4-induced C57BL/6J mouse hepatic fibrosis model assessed as downregulation of TGF-beta1 mRNA expression at 30 mg/kg, po measured for 3 weeks by qRT-PCR analysis; format: functional, organism-based
[15] = tested on: Mus musculus; test: Anti-hepatic fibrosis activity in CCL4-induced C57BL/6J mouse hepatic fibrosis model assessed as downregulation of collagen level in liver at 30 mg/kg, po measured for 3 weeks by immunohistochemical analysis; format: functional, organism-based
[16] = tested on: Mus musculus; test: Anti-hepatic fibrosis activity in CCL4-induced C57BL/6J mouse hepatic fibrosis model assessed as downregulation of alpha-SMA mRNA expression at 30 mg/kg, po measured for 3 weeks by qRT-PCR analysis; format: functional, organism-based
[17] = tested on: Mus musculus; test: Antifibrotic activity against CCL4-induced C57BL/6J mouse hepatic fibrosis model assessed as reduction in CD69/CD8 in […] cell cells at 15 mg/kg, po measured for 3 weeks by flow cytometry analysis relative to control; format: functional; parameters: scale not given: the % may be the effect or the level left
[18] = tested on: Mus musculus; test: Anti-hepatic fibrosis activity in CCL4-induced C57BL/6J mouse hepatic fibrosis model assessed as decrease in serum AST level at 15 to 30 mg/kg, po measured for 3 weeks; format: functional, organism-based; conditions: dose 15-30 mg/kg
[19] = tested on: LX-2; test: Antifibrotic activity against TGF-beta1 induced human LX2 cells assessed as reduction of alpha-SMA expression at 20 uM pretreated with TGF-beta1 for 1 hr followed by compound addition and measured after 24 hrs by Western blot analysis; format: functional, cell-based
[20] = tested on: Mus musculus; test: Anti-hepatic fibrosis activity in CCL4-induced C57BL/6J mouse hepatic fibrosis model assessed as downregulation of alpha-SMA level at 30 mg/kg, po measured for 3 weeks by Western blot analysis; format: functional, organism-based
[21] = tested on: Mus musculus; test: Anti-hepatic fibrosis activity in CCL4-induced C57BL/6J mouse hepatic fibrosis model assessed as decrease in serum ALT level at 15 to 30 mg/kg, po measured for 3 weeks; format: functional, organism-based; conditions: dose 15-30 mg/kg
[22] = Toxicity in CCL4-induced C57BL/6J mouse assessed as effect on body weight at 15 to 30 mg/kg, po; format: organism-based; conditions: in vivo, dose 15-30 mg/kg
[23] = tested on: LX-2; test: Inhibition of TGF-beta1-induced human LX2 activation at 20 uM pretreated with TGF-beta1 for 1 hr followed by compound addition and measured after 72 hrs by CCK-8 assay relative to control; format: functional
[24] = Toxicity in CCL4-induced C57BL/6J mouse assessed as effect on creatinine level at 15 to 30 mg/kg, po; format: organism-based; conditions: in vivo, dose 15-30 mg/kg
[25] = Toxicity in CCL4-induced po dosed C57BL/6J mouse assessed as inflammatory cell infiltration in lung at 15 to 30 mg/kg, po by H and E staining based analysis; format: organism-based; conditions: in vivo, dose 15-30 mg/kg
[26] = Toxicity in CCL4-induced C57BL/6J mouse assessed as effect on urea level at 15 to 30 mg/kg, po; format: organism-based; conditions: in vivo, dose 15-30 mg/kg
[27] = tested on: Mus musculus; test: Anti-hepatic fibrosis activity in CCL4-induced C57BL/6J mouse hepatic fibrosis model assessed as reduction in liver injury at 15 to 30 mg/kg, po measured for 3 weeks; format: functional, organism-based; conditions: dose 15-30 mg/kg
[28] = tested on: Mus musculus; test: Inhibition of epithelial mesenchymal transition in CCL4-induced C57BL/6J mouse hepatic fibrosis model assessed as decrease in vimentin protein expression at 15 to 30 mg/kg, po measured for 3 weeks; format: functional, organism-based; conditions: dose 15-30 mg/kg
[29] = tested on: Mus musculus; test: Antifibrotic activity against CCL4-induced C57BL/6J mouse hepatic fibrosis model assessed as reduction in CD11b/Gr-1 in MDSC cells at 30 mg/kg, po measured for 3 weeks by flow cytometry analysis relative to control; format: functional; parameters: scale not given: the % may be the effect or the level left
[30] = Toxicity in CCL4-induced po dosed C57BL/6J mouse assessed as inflammatory cell infiltration in spleen at 15 to 30 mg/kg, po by H and E staining based analysis; format: organism-based; conditions: in vivo, dose 15-30 mg/kg
[31] = tested on: Mus musculus; test: Antifibrotic activity against CCL4-induced C57BL/6J mouse hepatic fibrosis model assessed as reduction in CD69/CD4 in Th1 cell cells at 15 mg/kg, po measured for 3 weeks by flow cytometry analysis relative to control; format: functional; parameters: scale not given: the % may be the effect or the level left
[32] = Toxicity in CCL4-induced po dosed C57BL/6J mouse assessed as inflammatory cell infiltration in heart at 15 to 30 mg/kg, po by H and E staining based analysis; format: organism-based; conditions: in vivo, dose 15-30 mg/kg
[33] = Antiproliferative activity against human LX2 cells assessed as cell survival rate at 20 uM incubated for 72 hrs by CCK-8 assay; format: toxicity, cell-based; conditions: LX-2 cells, read-out: Activity
[34] = tested on: Mus musculus; test: Inhibition of epithelial mesenchymal transition in CCL4-induced C57BL/6J mouse hepatic fibrosis model assessed as […] in N-cadherin protein expression at 15 to 30 mg/kg, po measured for 3 weeks; format: functional, organism-based; conditions: dose 15-30 mg/kg
[35] = tested on: LX-2; test: Antifibrotic activity against TGF-beta1 induced human LX2 cells assessed as reduction of fibronectin expression at 20 uM pretreated with TGF-beta1 for 1 hr followed by compound addition and measured after 24 hrs by Western blot analysis; format: functional, cell-based
[36] = tested on: Mus musculus; test: Anti-hepatic fibrosis activity in CCL4-induced C57BL/6J mouse hepatic fibrosis model assessed as downregulation of collagen mRNA expression at 30 mg/kg, po measured for 3 weeks by qRT-PCR analysis; format: functional, organism-based
[37] = tested on: Mus musculus; test: Antifibrotic activity against CCL4-induced C57BL/6J mouse hepatic fibrosis model assessed as reduction in CD69/CD8 in […] cell cells at 30 mg/kg, po measured for 3 weeks by flow cytometry analysis relative to control; format: functional; parameters: scale not given: the % may be the effect or the level left
[38] = tested on: Mus musculus; test: Anti-hepatic fibrosis activity in CCL4-induced C57BL/6J mouse hepatic fibrosis model assessed as downregulation of alpha-SMA level in liver at 30 mg/kg, po measured for 3 weeks by immunohistochemical analysis; format: functional, organism-based
[39] = tested on: Mus musculus; test: Anti-hepatic fibrosis activity in CCL4-induced C57BL/6J mouse hepatic fibrosis model assessed as downregulation of collagen level at 30 mg/kg, po measured for 3 weeks by Western blot analysis; format: functional, organism-based
[40] = tested on: Mus musculus; test: Anti-hepatic fibrosis activity in CCL4-induced C57BL/6J mouse hepatic fibrosis model assessed as improvement in inflammatory cell infiltration at 15 to 30 mg/kg, po measured for 3 weeks by H and E staining based analysis; format: functional, organism-based; conditions: dose 15-30 mg/kg

Work on `COc1ccc(/C=C/C(=O)Nc2cccc(C(=O)NC3CCCC3)c2)cc1` yielded an IC50 at 72 h [1] of 105 µM, an Activity [2] of 1.19% and an Activity [3] of 1.9%. For the same molecule, the Activity [4] was “Active”, the Activity [5] was 5.11% and the Activity [6] was “Active”. The Activity [7] was “Active”, the Activity [8] was “Active” and the Activity [9] was 4.8%. The Activity [10] was “Active”, the Activity [11] was “Non-Toxic” and the Activity [12] was “Dose-Dependent Effect”. For the same molecule, the Activity [13] was “Active”, the Activity [14] was “Active” and the Activity [15] was “Active”. For the same molecule, the Activity [16] was “Active”, the Activity [17] was 1.54% and the Activity [18] was “Active”. The Activity [19] was “Active”, the Activity [20] was “Active” and the Activity [21] was “Active”. For the same molecule, the Activity [22] was “Non-Toxic”, the inhibition at 20 µM [23] was 30.3% and the Activity [24] was “Non-Toxic”. For the same molecule, the Activity [25] was “Non-Toxic”, the Activity [26] was “Non-Toxic” and the Activity [27] was “Active”. For the same molecule, the Activity [28] was “Active”, the Activity [29] was 1.86% and the Activity [30] was “Non-Toxic”. The Activity [31] was 1.21%, the Activity [32] was “Non-Toxic” and the viability at 72 h, 20 µM [33] was 77.5%. For the same molecule, the inhibition [34] was “Active”, the Activity [35] was “Active” and the Activity [36] was “Active”. For the same molecule, the Activity [37] was 1.45%, the Activity [38] was “Active” and the Activity [39] was “Active”. The Activity [40] was “Active”.
